The subject of one series is Micrococcus luteus. As to the kind of experiment: Antibacterial activity against Micrococcus luteus ATCC 9341 assessed as growth inhibition up to 128 ug/ml. It is filed as functional, organism-based.
The test system of series [1] is Trypanosoma brucei rhodesiense. As to the kind of experiment: Antiprotozoal activity against trypomastigote stage of Trypanosoma brucei rhodesiense STIB900 after 72 hrs by Alamar Blue assay. It is filed as functional, organism-based.
For series [2], the system named is Staphylococcus aureus. As to the kind of experiment: Antibacterial activity against Staphylococcus aureus ATCC 29213 assessed as growth inhibition up to 128 ug/ml. The class given is functional, organism-based.
For the next series, the system named is Enterococcus faecalis. The series can be described thus: Antibacterial activity against Enterococcus faecalis ATCC 29212 assessed as growth inhibition up to 128 ug/ml. It is filed as functional, organism-based.
The subject of series [3] is Staphylococcus aureus. The series can be described thus: Antibacterial activity against methicillin-resistant Staphylococcus aureus ATCC 43300 assessed as growth inhibition up to 128 ug/ml. It is filed as functional, organism-based.
Another series deals with L6. As to the kind of experiment: Cytotoxicity against rat L6 cells after 72 hrs by Alamar Blue assay. As to conditions: L6, 72 h. The class given is cell-based.
Another series deals with Escherichia coli. As to the kind of experiment: Antibacterial activity against Escherichia coli ATCC 25922 assessed as growth inhibition up to 128 ug/ml. It is filed as functional, organism-based.
For another series, the system named is Pseudomonas aeruginosa. The series can be described thus: Antibacterial activity against Pseudomonas aeruginosa ATCC 27853 assessed as growth inhibition up to 128 ug/ml. It is filed as functional, organism-based.
The nature of series [4]: Passive permeability of the compound at 500 uM after 5 hrs by PAMPA. The class given is ADME.
A short description of series [5]: Half life in Galleria mellonella hemolymph plasma at 0.5 mM by HPLC-MS method. It is filed as ADME, cell-free.
Series [6] in a line: Drug metabolism in Sprague-Dawley rat liver microsomes assessed as CYP450-mediated (S)-2-amino-N-((S)-1-((S)-1-((S)-1-(4-hydroxyphenethylamino)-3-methyl-1-oxobutan-2-ylamino)-3-methyl-1-oxobutan-2-ylamino)-3-methyl-1-oxobutan-2-yl)-3-methylbutanamide formation at 1 mM preincubated with NADPH regenerating system followed by microsome addition measured after 15 to 60 mins by HR-HPLC-MS method. The following applies: 1000 µM. It is filed as ADME.

Series [7] can be described thus: Drug metabolism in Sprague-Dawley rat liver microsomes assessed as CYP450-mediated (S)-2-((S)-2-((S)-2-amino-3-methylbutanamido)-3-methylbutanamido)-3-hydroxy-3-methyl-N-((S)-3-methyl-1-oxo-1-(phenethylamino)butan-2-yl)butanamide formation at 1 mM preincubated with NADPH regenerating system followed by microsome addition measured after 15 to 60 mins by HR-HPLC-MS method. The class given is ADME. As to conditions: 1000 µM.

A short description of series [8]: Drug metabolism in Sprague-Dawley rat liver microsomes assessed as CYP450-mediated (S)-2-((S)-2-amino-3-methylbutanamido)-3-hydroxy-3-methyl-N-((S)-3-methyl-1-((S)-3-methyl-1-oxo-1-(phenethylamino)butan-2-ylamino)-1-oxobutan-2-yl)butanamide formation at 1 mM preincubated with NADPH regenerating system followed by microsome addition measured after 15 to 60 mins by HR-HPLC-MS method. The class given is ADME. The following applies: 1000 µM.

Series [9] is described as follows: Drug level in Sprague-Dawley rat liver microsomes assessed as CYP450-mediated compound formation treated with (S)-2-amino-3-methyl-N-((S)-3-methyl-1-((S)-3-methyl-1-((S)-3-methyl-1-oxo-1-(phenethylamino)butan-2-ylamino)-1-oxobutan-2-ylamino)-1-oxobutan-2-yl)butanamide at 1 mM preincubated with NADPH regenerating system followed by microsome addition measured after 15 to 60 mins by HR-HPLC-MS method. The class given is ADME. As to conditions: 1000 µM.

Another series deals with Plasmodium falciparum. The series can be described thus: Antiprotozoal activity against IEF stage of Plasmodium falciparum NF54 after 48 hrs by [3H]-hypoxanthine incorporation assay. The class given is functional, organism-based.
Series [10] is described as follows: Drug metabolism in Sprague-Dawley rat liver microsomes assessed as CYP450-mediated (S)-2-((S)-N,3-dimethyl-2-(methylamino)butanamido)-N-((S)-1-(((S)-1-(4-hydroxyphenethylamino)-3-methyl-1-oxobutan-2-yl)(methyl)amino)-3-methyl-1-oxobutan-2-yl)-N,3-dimethylbutanamide formation at 1 mM preincubated with NADPH regenerating system followed by microsome addition measured after 15 to 60 mins by HR-HPLC-MS method. The following applies: 1000 µM. The class given is ADME.

A short description of series [11]: Drug metabolism in Sprague-Dawley rat liver microsomes assessed as CYP450-mediated (S)-3-hydroxy-N,3-dimethyl-N-((S)-3-methyl-1-(methyl((S)-3-methyl-1-(methyl((S)-3-methyl-1-oxo-1-(phenethylamino)butan-2-yl)amino)-1-oxobutan-2-yl)amino)-1-oxobutan-2-yl)-2-(methylamino)butanamide formation at 1 mM preincubated with NADPH regenerating system followed by microsome addition measured after 15 to 60 mins by HR-HPLC-MS method. As to conditions: 1000 µM. It is filed as ADME.

The nature of series [12]: Drug level in Sprague-Dawley rat liver microsomes assessed as CYP450-mediated compound formation treated with (S)-2-((S)-N,3-dimethyl-2-(methylamino)butanamido)-N,3-dimethyl-N-((S)-3-methyl-1-(methyl((S)-3-methyl-1-oxo-1-(phenethylamino)butan-2-yl)amino)-1-oxobutan-2-yl)butanamide at 1 mM preincubated with NADPH regenerating system followed by microsome addition measured after 15 to 60 mins by HR-HPLC-MS method. The class given is ADME. As to conditions: 1000 µM.

SMILES strings stand for the structures. Values after ≈ are worked out from the molar mass of the structure shown. Active and inactive are the calls of the source. The calls are words filed in the database; no cut-off is given here. Non-standard residues stand in square brackets, D forms with d. Residues, ends and D or L forms follow the SMILES beside them. *: point of attachment. NMeVal(β-OH) = CN[C@H](C(=O)O)C(C)(C)O; NH(4-OH-phenethyl) = Oc1ccc(CCN*)cc1; Tryptamide = c1ccc2c(CCN*)c[nH]c2c1; Val(3-OH) = CC(C)(O)[C@H](N)C(=O)O; NMeF = CN[C@@H](Cc1ccccc1)C(=O)O; NMeL = CN[C@@H](CC(C)C)C(=O)O; NHPhenethyl = c1ccc(CCN*)cc1; NMeV = CN[C@H](C(=O)O)C(C)C; NMeA = CN[C@@H](C)C(=O)O

As for `CN[C@@H](CC(C)C)C(=O)N(C)[C@@H](CC(C)C)C(=O)N(C)[C@@H](CC(C)C)C(=O)N(C)[C@@H](CC(C)C)C(=O)NCCc1ccccc1`, the “growth inhibition (GI)” value in the series with Micrococcus luteus, in the series on Staphylococcus aureus [2], in the series on Enterococcus faecalis, in the series with Staphylococcus aureus [3], in the series on Escherichia coli and in the series with Pseudomonas aeruginosa was “inactive” in each case. For the same compound, the IC50 was 1.4 to 2.1 µg/mL (≈ 2.22 to 3.33 µM) in series [1] (STIB900, 72 h) and 16.7 µg/mL (≈ 26.5 µM) in the series with L6.

As for `CC(C)[C@H](N)C(=O)N[C@H](C(=O)N[C@H](C(=O)N[C@@H](Cc1ccccc1)C(=O)NCCc1ccccc1)C(C)C)C(C)C` (H-VVVF-NHPhenethyl), in [4], the permeability result is given as “Impermeable”.

`CC(C)C[C@H](NC(=O)[C@@H](NC(=O)[C@@H](NC(=O)[C@@H](N)C(C)C)C(C)C)C(C)C)C(=O)NCCc1ccccc1` (H-VVVL-NHPhenethyl) registered a half-life at 500 µM in series [5] of 30 min. In series [4], the permeability result is given as “Impermeable”.

In the case of `CC(C)[C@H](N)C(=O)N[C@H](C(=O)N[C@H](C(=O)N[C@H](C(=O)NCCc1ccccc1)C(C)C)C(C)C)C(C)C` (H-VVVV-NHPhenethyl), the half-life at 500 µM in series [5] came to 30 min. The Drug metabolism result in series [6], in series [7] and in [8] was “Metabolite_Detected” throughout.

On to `CC(C)[C@H](N)C(=O)N[C@H](C(=O)N[C@H](C(=O)N[C@H](C(=O)NCCc1ccc(O)cc1)C(C)C)C(C)C)C(C)C` (H-VVVV-{NH(4-OH-phenethyl)}), for which the Drug metabolism result in series [9] is “Metabolite_Detected”.

With `CC(C)[C@H](N)C(=O)N[C@H](C(=O)N[C@H](C(=O)N[C@H](C(=O)NCCc1ccccc1)C(C)C)C(C)(C)O)C(C)C` (H-VV[Val(3-OH)]V-NHPhenethyl), the Drug metabolism result in series [9] is recorded as “Metabolite_Detected”.

For `CC(C)[C@H](N)C(=O)N[C@H](C(=O)N[C@H](C(=O)N[C@H](C(=O)NCCc1ccccc1)C(C)C)C(C)C)C(C)(C)O` (H-V[Val(3-OH)]VV-NHPhenethyl), the Drug metabolism entry in series [9] is reported as “Metabolite_Detected”.

In the series on Plasmodium falciparum, `CN[C@@H](C)C(=O)N(C)[C@@H](CC(C)C)C(=O)N(C)[C@@H](CC(C)C)C(=O)N(C)[C@@H](CC(C)C)C(=O)NCCc1ccccc1` (H-[NMeA][NMeL][NMeL][NMeL]-NHPhenethyl) came in with an IC50 of 1.85 µg/mL (≈ 3.15 µM).

Compound `CN[C@@H](Cc1ccccc1)C(=O)N[C@H](C(=O)N(C)[C@H](C(=O)N(C)[C@H](C(=O)N(C)[C@H](C(=O)N(C)[C@@H](Cc1ccccc1)C(=O)NCCc1ccccc1)C(C)C)C(C)C)C(C)C)C(C)C` (H-[NMeF]V[NMeV][NMeV][NMeV][NMeF]-NHPhenethyl) came in with a concentration for half-maximal inhibition (IC50) with Plasmodium falciparum of 0.14 µg/mL (≈ 0.159 µM).

Take `CN[C@@H](Cc1ccccc1)C(=O)N(C)[C@@H](Cc1ccccc1)C(=O)N(C)[C@@H](Cc1ccccc1)C(=O)N(C)[C@@H](Cc1ccccc1)C(=O)N(C)[C@@H](Cc1ccccc1)C(=O)NCCc1ccccc1` (H-[NMeF][NMeF][NMeF][NMeF][NMeF]-NHPhenethyl): the “growth inhibition (GI)” value in the series on Micrococcus luteus, with Staphylococcus aureus [2], with Enterococcus faecalis, in the series with Staphylococcus aureus [3], with Escherichia coli and in the series on Pseudomonas aeruginosa was “inactive” in each case. Besides, the 50% inhibitory concentration (IC50) in the series with Plasmodium falciparum was 0.2 µg/mL (≈ 0.216 µM). In addition, the outcome in [1] was Active.

Compound `CN[C@@H](Cc1ccccc1)C(=O)N(C)[C@H](C(=O)N(C)[C@@H](CC(C)C)C(=O)N(C)[C@H](C(=O)NCCc1ccccc1)C(C)C)C(C)C` (H-[NMeF][NMeV][NMeL][NMeV]-NHPhenethyl) gave a concentration for half-maximal inhibition (IC50) with Plasmodium falciparum of 0.1 µg/mL (≈ 0.157 µM).

In the series on Plasmodium falciparum, `CN[C@@H](CC(C)C)C(=O)N(C)[C@@H](CC(C)C)C(=O)N(C)[C@@H](CC(C)C)C(=O)N(C)[C@@H](C)C(=O)NCCc1ccccc1` (H-[NMeL][NMeL][NMeL][NMeA]-NHPhenethyl) returned a half-maximal inhibitory concentration (IC50) of 31 µg/mL (≈ 52.7 µM).

In the series with Plasmodium falciparum, `CN[C@@H](CC(C)C)C(=O)N(C)[C@@H](CC(C)C)C(=O)N(C)[C@@H](CC(C)C)C(=O)N(C)[C@@H](CC(C)C)C(=O)NCCc1c[nH]c2ccccc12` (H-[NMeL][NMeL][NMeL][NMeL]-Tryptamide) had an IC50 of 0.6 µg/mL (≈ 0.897 µM).

For `CN[C@@H](CC(C)C)C(=O)N(C)[C@@H](CC(C)C)C(=O)N(C)[C@@H](CC(C)C)C(=O)N(C)[C@@H](CC(C)C)C(=O)NCCc1ccc(O)cc1` (H-[NMeL][NMeL][NMeL][NMeL]-{NH(4-OH-phenethyl)}), the “growth inhibition (GI)” value in the series on Micrococcus luteus, in the series with Staphylococcus aureus [2], in the series on Enterococcus faecalis, in the series on Staphylococcus aureus [3], with Escherichia coli and in the series on Pseudomonas aeruginosa was “inactive” each time. The IC50 with L6 is 30.6 µg/mL (≈ 47.4 µM).

For the compound `CN[C@H](C(=O)N(C)[C@H](C(=O)N(C)[C@H](C(=O)N(C)[C@@H](Cc1ccccc1)C(=O)NCCc1ccccc1)C(C)C)C(C)C)C(C)C` (H-[NMeV][NMeV][NMeV][NMeF]-NHPhenethyl), the permeability result in [4] was “Permeable”.

In turn, `CN[C@H](C(=O)N(C)[C@H](C(=O)N(C)[C@H](C(=O)N(C)[C@@H](CC(C)C)C(=O)NCCc1ccccc1)C(C)C)C(C)C)C(C)C` (H-[NMeV][NMeV][NMeV][NMeL]-NHPhenethyl) came in with a half-life at 500 µM in series [5] of more than 240 min. Moreover, in series [4], the permeability entry is listed as “Permeable”.

On to `CN[C@H](C(=O)N(C)[C@H](C(=O)N(C)[C@H](C(=O)N(C)[C@H](C(=O)NCCc1ccccc1)C(C)C)C(C)C)C(C)C)C(C)C` (H-[NMeV][NMeV][NMeV][NMeV]-NHPhenethyl), for which the “growth inhibition (GI)” value in the series with Micrococcus luteus, in the series with Staphylococcus aureus [2], with Enterococcus faecalis, in the series with Staphylococcus aureus [3], with Escherichia coli and with Pseudomonas aeruginosa was “inactive” throughout. Moreover, the half-life at 500 µM in series [5] is more than 240 min. In [1], the result was Active. The Drug metabolism entry in series [10] and in [11] was “Metabolite_Detected” in each case.

For the compound `CN[C@H](C(=O)N(C)[C@H](C(=O)N(C)[C@H](C(=O)N(C)[C@H](C(=O)NCCc1ccc(O)cc1)C(C)C)C(C)C)C(C)C)C(C)C` (H-[NMeV][NMeV][NMeV][NMeV]-{NH(4-OH-phenethyl)}), the Drug metabolism result in series [12] is “Metabolite_Detected”.

For `CN[C@H](C(=O)N(C)[C@H](C(=O)N(C)[C@H](C(=O)N(C)[C@H](C(=O)NCCc1ccccc1)C(C)C)C(C)C)C(C)C)C(C)(C)O` (H-[NMeVal(β-OH)][NMeV][NMeV][NMeV]-NHPhenethyl), the Drug metabolism entry in [12] is reported as “Metabolite_Detected”.
